# Experimental data from patent publication US9611277B2 (Janssen Pharmaceutica NV, priority 2013, dated 2017).
# Where two headings read alike, the source gives them in different places.
# How the values were obtained:
# rat orexin 1 receptor = rat orexin 1 receptor (Rattus norvegicus, UniProt P56718); assay: Rat orexin 1 receptor radioligand binding
# Procedure: (§1) Data are analyzed using pc-Sandy macro and graphed on Graphpad Prism 5. For analysis, each concentration point is averaged from triplicate values and the averaged values are plotted on Graphpad Prism. The IC50 was determined by applying the following equation (GraphPad Prism 5.0, SanDiego) for one site competition where X=log (concentration) and Y=specific binding. Top denotes the total [^3H]-(1-(5-(2-fluoro-phenyl)-2-methyl-thiazol-4-yl)-1-((S)-2-(5-phenyl-(1,3,4)oxadiazol-2-ylmethyl)-pyrrolidin-1-yl)-methanone) binding, bottom denotes the nonspecific [^3H]-(1-(5-(2-fluoro-phenyl)-2-methyl-thiazol-4-yl)-1-((S)-2-(5-phenyl-(1,3,4)oxadiazol-2-ylmethyl)-pyrrolidin-1-yl)-methanone) binding. Graphpad Prism calculates Ki value from IC50 and the pre-determined Kd values for [^3H]-(1-(5-(2-fluoro-phenyl)-2-methyl-thiazol-4-yl)-1-((S)-2-(5-phenyl-(1,3,4)oxadiazol-2-ylmethyl)-pyrrolidin-1-yl)-methanone) and [3H]-EMPA. The Ki for each compound is then uploaded into 3DX. Each run comprises individual compounds in triplicate. The data in Table 1 and Table 2 represent averages from between 2-20 runs
# Rat and Human Orexin 1 Receptor Radioligand Binding Studies
# (§2) After centrifugation (2K×G, 5 min at 4° C.), the supernatant was aspirated and the pellets frozen and stored at −80° C. […] Each cell pellet from a 15 cm plate was resuspended in 10 mL, stored on ice, and homogenized for 45 sec prior to addition to the reactions. […] The final concentration of DMSO in the reactions is equal to or less than 0.1%. Total and nonspecific binding was determined in the absence and presence of 10 μM almorexant. The total volume of each reaction is 200 μL (20 μL of diluted compounds, 80 μL of [^3H]-(1-(5-(2-fluoro-phenyl)-2-methyl-thiazol-4-yl)-1-((S)-2-(5-phenyl-(1,3,4)oxadiazol-2-ylmethyl)-pyrrolidin-1-yl)-methanone) diluted in PBS and 100 μL of the cell suspension). […] The plates were washed 3 times by aspirating 30 ml PBS through the plates. Plates were dried in 55° C. oven for 60 min, scintillation fluid was added, and the radioactivity was counted on a Topcount (Packard).
# human orexin 2 receptor = human orexin 2 receptor (Homo sapiens (Human), UniProt O43614); assay: Human orexin 2 receptor radioligand binding; details: human orexin 2 receptor; averages of 2-20 runs; read-out: hOX2 Ki
# Sequence of human orexin 2 receptor (O43614 whole entry): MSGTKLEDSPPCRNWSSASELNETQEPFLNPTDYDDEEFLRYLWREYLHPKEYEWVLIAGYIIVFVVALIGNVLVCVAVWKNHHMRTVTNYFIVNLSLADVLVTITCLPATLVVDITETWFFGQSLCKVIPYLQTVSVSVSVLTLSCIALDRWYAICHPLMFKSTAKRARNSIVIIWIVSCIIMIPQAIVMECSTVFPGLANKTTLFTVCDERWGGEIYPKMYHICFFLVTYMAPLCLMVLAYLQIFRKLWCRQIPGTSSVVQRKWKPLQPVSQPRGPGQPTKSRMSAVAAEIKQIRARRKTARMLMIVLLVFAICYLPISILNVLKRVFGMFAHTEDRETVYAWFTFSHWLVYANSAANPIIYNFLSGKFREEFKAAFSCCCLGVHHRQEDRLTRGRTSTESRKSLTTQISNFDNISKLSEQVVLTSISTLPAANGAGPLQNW
# Procedure: as §1
# Human Orexin 2 Receptor Radioligand Binding Studies
# as §2, with “HEK293 stably expressing human orexin 2 receptor (Genebank accession number NM_001526) were grown to confluency in DMEM (Hyclone, cat # SH30022), 10% FBS, 1× Pen/Strep, 1× NaPyruvate, 10 mM HEPES, 600 ug/ml G418 media on 150 cm^2 tissue culture plates, washed with 5 mM EDTA in PBS (HyClone Dulbecco's Phosphate Buffered Saline 1× with Calcium and Magnesium, Cat # SH30264.01, hereafter referred to simply as PBS) and scraped into 50 ml tubes. After” for “After”, “sec just” for “sec”, “[^3H]-EMPA” for “[^3H]-(1-(5-(2-fluoro-phenyl)-2-methyl-thiazol-4-yl)-1-((S)-2-(5-phenyl-(1,3,4)oxadiazol-2-ylmethyl)-pyrrolidin-1-yl)-methanone)”
# [1] = rat orexin 1 receptor, averages of 2-20 runs, read-out: rOX1 Ki
Ki (rat orexin 1 receptor; [1]),Ki (human orexin 2 receptor),Structure (SMILES),Ki (rat orexin 1 receptor)
> 10 µM,> 10 µM,"Cc1nc2sccn2c1C(=O)N1CC2CC(Oc3ccc(C(F)(F)F)cn3)C1C2 (racemic) [Example 6, (R/S)-(6-methylimidazo[2,1-b]thiazol-5-yl)(6-((5-(trifluoromethyl)pyridin-2-yl)oxy)-2-azabicyclo[2.2.1]heptan-2-yl)methanone]",
,0.758 µM,"O=C(c1cccc(F)c1-n1nccn1)N1CC2CCC1C(Oc1ccc(C(F)(F)F)cn1)C2 (racemic) [Example 249, (R/S)-(3-fluoro-2-(2H-1,2,3-triazol-2-yl)phenyl)(6-((5-(trifluoromethyl)pyridin-2-yl)oxy)-2-azabicyclo[2.2.2]octan-2-yl)methanone]",
,1 µM,"O=C(c1cccc(F)c1-n1nccn1)N1CC2CCC1C(Nc1cnc(C(F)(F)F)cn1)C2 (racemic) [Example 255, (R/S)-(3-fluoro-2-(2H-1,2,3-triazol-2-yl)phenyl)(6-((5-(trifluoromethyl)pyrazin-2-yl)amino)-2-azabicyclo[2.2.2]octan-2-yl)methanone]",
,0.633 µM,"O=C(c1c(F)cccc1-c1ncccn1)N1C[C@H]2C[C@@H](Oc3ccc(C(F)(F)F)cn3)[C@@H]1C2 [Example 38, (2-fluoro-6-(pyrimidin-2-yl)phenyl)((1S,4R,6R)-6-((5-(trifluoromethyl)pyridin-2-yl)oxy)-2-azabicyclo[2.2.1]heptan-2-yl)methanone]",
0.072 µM,,"COc1cccc(-c2ccn[nH]2)c1C(=O)N1C[C@H]2C[C@@H](Oc3ccc(C(F)(F)F)cn3)[C@@H]1C2 [Example 39, (2-methoxy-6-(1H-pyrazol-5-yl)phenyl)((1S,4R,6R)-6-((5-(trifluoromethyl)pyridin-2-yl)oxy)-2-azabicyclo[2.2.1]heptan-2-yl)methanone]",
0.015 µM,,"COc1cccc(-c2ncccn2)c1C(=O)N1C[C@H]2C[C@@H](Oc3ccc(C(F)(F)F)cn3)[C@@H]1C2 [Example 40, (2-methoxy-6-(pyrimidin-2-yl)phenyl)((1S,4R,6R)-6-((5-(trifluoromethyl)pyridin-2-yl)oxy)-2-azabicyclo[2.2.1]heptan-2-yl)methanone]",
0.005 µM,0.225 µM,"O=C(c1cc(F)ccc1-n1nccn1)N1C[C@H]2C[C@@H](Nc3ccc(C(F)(F)F)cn3)[C@@H]1C2 [Example 57, (5-fluoro-2-(2H-1,2,3-triazol-2-yl)phenyl)((1S,4S,6R)-6-((5-(trifluoromethyl)pyridin-2-yl)amino)-2-azabicyclo[2.2.1]heptan-2-yl)methanone]",
0.32 µM,1.7 µM,"O=C(c1cccc(F)c1-c1ncccn1)N1C[C@H]2C[C@@H](Oc3ncccc3C(F)(F)F)[C@@H]1C2 [Example 96, (3-fluoro-2-(pyrimidin-2-yl)phenyl)((1S,4R,6R)-6-((3-(trifluoromethyl)pyridin-2-yl)oxy)-2-azabicyclo[2.2.1]heptan-2-yl)methanone]",
0.404 µM,1.6 µM,"O=C(c1ccccc1-n1nccn1)N1C[C@H]2C[C@@H](Oc3ccccn3)[C@@H]1C2 [Example 102, (2-(2H-1,2,3-triazol-2-yl)phenyl)((1S,4R,6R)-6-(pyridin-2-yloxy)-2-azabicyclo[2.2.1]heptan-2-yl)methanone]",
> 10 µM,> 10 µM,"Cc1ccc(C(=O)N2C[C@H]3C[C@@H](Oc4ccccn4)[C@@H]2C3)c(-n2nccn2)n1 [Example 103, (6-methyl-2-(2H-1,2,3-triazol-2-yl)pyridin-3-yl)((1S,4R,6R)-6-(pyridin-2-yloxy)-2-azabicyclo[2.2.1]heptan-2-yl)methanone]",
0.497 µM,5 µM,"O=C(c1cccc(F)c1-c1ncccn1)N1C[C@H]2C[C@@H](Oc3ccccn3)[C@@H]1C2 [Example 104, (3-fluoro-2-(pyrimidin-2-yl)phenyl)((1S,4R,6R)-6-(pyridin-2-yloxy)-2-azabicyclo[2.2.1]heptan-2-yl)methanone]",
0.262 µM,3.6 µM,"Cc1ccc(-n2nccn2)c(C(=O)N2C[C@H]3C[C@@H](Oc4ccc(F)cn4)[C@@H]2C3)n1 [Example 119, ((1S,4R,6R)-6-((5-fluoropyridin-2-yl)oxy)-2-azabicyclo[2.2.1]heptan-2-yl)(6-methyl-3-(2H-1,2,3-triazol-2-yl)pyridin-2-yl)methanone]",
0.425 µM,6.8 µM,"Cc1cnc(O[C@@H]2C[C@H]3C[C@@H]2N(C(=O)c2nc(C)ccc2-n2nccn2)C3)nc1 [Example 132, (6-methyl-3-(2H-1,2,3-triazol-2-yl)pyridin-2-yl)((1S,4R,6R)-6-((5-methylpyrimidin-2-yl)oxy)-2-azabicyclo[2.2.1]heptan-2-yl)methanone]",
0.668 µM,> 10 µM,"Cc1cnc(O[C@@H]2C[C@H]3C[C@@H]2N(C(=O)c2ncc(C)cc2-c2ncccn2)C3)nc1 [Example 134, (5-methyl-3-(pyrimidin-2-yl)pyridin-2-yl)((1S,4R,6R)-6-((5-methylpyrimidin-2-yl)oxy)-2-azabicyclo[2.2.1]heptan-2-yl)methanone]",
0.38 µM,4.7 µM,"CCc1cnc(O[C@@H]2C[C@H]3C[C@@H]2N(C(=O)c2nc(C)ccc2-n2nccn2)C3)nc1 [Example 136, ((1S,4R,6R)-6-((5-ethylpyrimidin-2-yl)oxy)-2-azabicyclo[2.2.1]heptan-2-yl)(6-methyl-3-(2H-1,2,3-triazol-2-yl)pyridin-2-yl)methanone]",
0.3 µM,2.7 µM,"CCc1cnc(O[C@@H]2C[C@H]3C[C@@H]2N(C(=O)c2nc(C)ccc2-c2ncccn2)C3)nc1 [Example 138, ((1S,4R,6R)-6-((5-ethylpyrimidin-2-yl)oxy)-2-azabicyclo[2.2.1]heptan-2-yl)(6-methyl-3-(pyrimidin-2-yl)pyridin-2-yl)methanone]",
0.33 µM,7.7 µM,"Cc1ccc(-n2nccn2)c(C(=O)N2C[C@H]3C[C@@H](Oc4ccc(C(F)(F)F)nn4)[C@@H]2C3)n1 [Example 140, (6-methyl-3-(2H-1,2,3-triazol-2-yl)pyridin-2-yl)((1S,4R,6R)-6-((6-(trifluoromethyl)pyridazin-3-yl)oxy)-2-azabicyclo[2.2.1]heptan-2-yl)methanone]",
,0.534 µM,"O=C(c1cccc(F)c1-n1nccn1)N1C[C@@H]2CC[C@H]1[C@H](Nc1cnc(C(F)(F)F)cn1)C2 [Example 274, (3-fluoro-2-(2H-1,2,3-triazol-2-yl)phenyl)((1S,4R,6R)-6-((5-(trifluoromethyl)pyrazin-2-yl)amino)-2-azabicyclo[2.2.2]octan-2-yl)methanone]",
,0.207 µM,"COc1cccc(-n2nccn2)c1C(=O)N1C[C@H]2C[C@@H](Oc3ccc(C(F)(F)F)cn3)[C@@H]1C2 [Example 289, (2-methoxy-6-(2H-1,2,3-triazol-2-yl)phenyl)((1S,4R,6R)-6-((5-(trifluoromethyl)pyridin-2-yl)oxy)-2-azabicyclo[2.2.1]heptan-2-yl)methanone]",

Structure (SMILES),Ki (rat orexin 1 receptor; [1]),Ki (human orexin 2 receptor),Ki (rat orexin 1 receptor)
"O=C(c1ccccc1-n1nccn1)N1CC2CCC1C(Nc1cnc(C(F)(F)F)cn1)C2 (racemic) [Example 254, (R/S)-(2-(2H-1,2,3-triazol-2-yl)phenyl)(6-((5-(trifluoromethyl)pyrazin-2-yl)amino)-2-azabicyclo[2.2.2]octan-2-yl)methanone]",,0.307 µM,0.012 µM
